Laboratory results from US20150099270A1, “METHOD OF SCREENING PHARMACEUTICALS FOR DRUG INTERACTIONS AND NEPHROTOXICITY” (priority 2013, published 2015).

Tests used:
HK-2 cells = assay: PAH metabolism experiment in HK-2 cells (acetyl-PAH formation quantified by HPLC); format: in vitro ADME, human
Procedure: Acetyl-PAH was quantified by HPLC using a Waters 2690 Separation Module. […] The runtime was 25 minutes for all samples.
HK2 cells were grown in 15 ml of Dulbecco's Modified Eagle Medium (DMEM)/F12 media with 10% Fetal Bovine Serum (FBS) and incubated at 37° C. with 5% CO2. After 5 days of culture, each 75 cm^2 flask of cells was transferred to 2 mls of the culture media and incubated with 200 μg/ml of PAH except for the negative control where no PAH was added. Cells were incubated for 4, 8 and 18 hours each (in triplicate) with or without PAH (control). Cells post incubation were lysed via sonication for 1 minute, then centrifuged at 14,000 RPM for 10 minutes. The supernatant was extracted and acetyl-PAH was quantified by HPLC. After 5 days of culture, the HK2 cell monolayers reached confluence (FIG. 1).
• 1. HK2 cells were grown in 15 ml of Dulbecco's Modified Eagle Medium (DMEM)/F12 media with 10% Fetal Bovine Serum (FBS) and incubated at 37° C. with 5% CO2. […]
Acetyl-PAH was quantified by HPLC using a Waters 2690 Separation Module. […] Quantification of acetyl-PAH formation was determined by calculating the area under the curve for each sample time-point, and determining the cumulative appearance over the entire incubation period (up to 18 hours).

[1] = dogs with azotemia, p=0.025; cited from earlier work
[2] = human, in vivo
Excerpt: The purpose of this study is to quantify plasma and urinary acetyl-PAH as a measure of tubular function, in the presence of simultaneous measurement of GFR (iothalamate clearance) in healthy subjects. […] Subjects receiving drugs known to interfere with tubular secretion based on a current review of available literature, or a history of known allergic or adverse reactions to diagnostic iodine containing compounds including iothalamate, or PAH were excluded. Subjects with preexisting liver disease (including hepatitis), increased INR, liver transaminases (AST/ALT), bilirubin, serum albumin<3.0 g/dL. Iothalamate (Conray®, Mallinkrodt), and PAH (Merck) infusions were prepared on the morning of the study visit.
On the study day, each subject reported to the General Clinical Research Unit (GCRC) by 8:00 AM on study visit days. A 6-mL blood sample was be obtained for biochemistries (BUN, serum creatinine) and a spot urine sample was obtained for protein:creatinine ratio. Vital signs (heart rate, blood pressure, respiratory rate) were recorded half-hourly throughout each study visit. Subjects had intravenous catheters inserted into forearm veins of each arm for blood collection and intravenous infusion of iothalamate and PAH. […]
Throughout the study, all blood samples were collected in heparinized (green top) tubes, placed on ice immediately, centrifuged within 15 minutes (4,000 RPM), split into 2 plasma aliquots and frozen at −20° C. until analyzed. […] Urine was be placed on ice immediately after collection, and three 8 mL aliquots were frozen at −20° C. until analyzed. The total volume of urine was measured for each collection interval. A 5 mL aliquot of each IV infusate was collected and frozen at −20° C. until analyzed.
Iothalamate and PAH: Iothalamate and PAH concentrations in plasma and urine will be determined using an HPLC assay method developed in our laboratory. […] Separation is achieved using a C18 column, and effluent is monitored at a wavelength of 254 ηm. […]

SMILES | metabolism of PAH to acetyl-PAH (HK-2 cells; HK2 cells, 200 μg/ml PAH, 4, 8 and 18 hours) | renal extraction [1] | Rsec (total rate of tubular secretion) [2] | mean (±SD) naPAH metabolite concentration (HK-2 cells; HK-2 cells incubated with PAH, HPLC) | appearance of acetyl-PAH metabolite in urine and plasma [2]
Nc1ccc(C(=O)NCC(=O)O)cc1 [PAH, Para-aminohippuric acid] | time dependent fashion | 0.57 | 382 ± 154 mL/min |  | 
CC(=O)Nc1ccc(C(=O)NCC(=O)O)cc1 [acetyl-PAH, 2-[(4-acetamidobenzoyl)amino]acetic acid] |  |  | 581 ± 191 mL/min | increased over time | appears in high quantities in the urine and plasma
CC[N+](CC)(CC)CC [TEA, tetraethylammonium] |  | 0.80 |  |  | 
